From ChEMBL document CHEMBL5550132, “Structure-activity relationship in NOD2 agonistic muramyl dipeptides” (Eur J Med Chem, 2024)

How the values were obtained:
Format in all cases: cell-based
Details in all cases: filed as activator
[1] = target: T1, Nuclear factor NF-kappa-B complex (Homo sapiens) (UniProt Q00653+P19838+Q04206); assay: Activation of NF-kappaB in HEK-Blue hNOD2 cells assessed as fold change at 1000 nM incubated for 48 hrs by SEAP reporter assay
[2] = target: T1, Nuclear factor NF-kappa-B complex (Homo sapiens); assay: Activation of NF-kappaB in HEK-Blue hNOD2 cells assessed as fold change at 10 nM incubated for 48 hrs by SEAP reporter assay
[3] = target: T1, Nuclear factor NF-kappa-B complex (Homo sapiens); assay: Activation of NF-kappaB in HEK-Blue hNOD2 cells assessed as fold change at 100 nM incubated for 48 hrs by SEAP reporter assay
[4] = target: T1, Nuclear factor NF-kappa-B complex (Homo sapiens); assay: Activation of NF-KappaB in HEK293T cells assessed as fold change
[5] = target: Nucleotide-binding oligomerization domain-containing protein 2 (Homo sapiens, UniProt Q9HC29); assay: Activation of NOD2 in HEK293T cells
[6] = target: T1, Nuclear factor NF-kappa-B complex (Homo sapiens); assay: Activation of NF-KappaB (unknown origin) expressed in HEK293T cells assessed as fold change at 10 ng incubated for 12 hrs by Renilla luciferase assay
[7] = target: T1, Nuclear factor NF-kappa-B complex (Homo sapiens); assay: Activation of NF-KappaB (unknown origin) expressed in HEK293T cells assessed as fold change at 100 ng incubated for 12 hrs by Renilla luciferase assay
[8] = target: T1, Nuclear factor NF-kappa-B complex (Homo sapiens); assay: Activation of NF-KappaB (unknown origin) expressed in HEK293T cells assessed as fold change at 1000 ng incubated for 12 hrs by Renilla luciferase assay

T1 sequence (P19838 whole entry, looked up): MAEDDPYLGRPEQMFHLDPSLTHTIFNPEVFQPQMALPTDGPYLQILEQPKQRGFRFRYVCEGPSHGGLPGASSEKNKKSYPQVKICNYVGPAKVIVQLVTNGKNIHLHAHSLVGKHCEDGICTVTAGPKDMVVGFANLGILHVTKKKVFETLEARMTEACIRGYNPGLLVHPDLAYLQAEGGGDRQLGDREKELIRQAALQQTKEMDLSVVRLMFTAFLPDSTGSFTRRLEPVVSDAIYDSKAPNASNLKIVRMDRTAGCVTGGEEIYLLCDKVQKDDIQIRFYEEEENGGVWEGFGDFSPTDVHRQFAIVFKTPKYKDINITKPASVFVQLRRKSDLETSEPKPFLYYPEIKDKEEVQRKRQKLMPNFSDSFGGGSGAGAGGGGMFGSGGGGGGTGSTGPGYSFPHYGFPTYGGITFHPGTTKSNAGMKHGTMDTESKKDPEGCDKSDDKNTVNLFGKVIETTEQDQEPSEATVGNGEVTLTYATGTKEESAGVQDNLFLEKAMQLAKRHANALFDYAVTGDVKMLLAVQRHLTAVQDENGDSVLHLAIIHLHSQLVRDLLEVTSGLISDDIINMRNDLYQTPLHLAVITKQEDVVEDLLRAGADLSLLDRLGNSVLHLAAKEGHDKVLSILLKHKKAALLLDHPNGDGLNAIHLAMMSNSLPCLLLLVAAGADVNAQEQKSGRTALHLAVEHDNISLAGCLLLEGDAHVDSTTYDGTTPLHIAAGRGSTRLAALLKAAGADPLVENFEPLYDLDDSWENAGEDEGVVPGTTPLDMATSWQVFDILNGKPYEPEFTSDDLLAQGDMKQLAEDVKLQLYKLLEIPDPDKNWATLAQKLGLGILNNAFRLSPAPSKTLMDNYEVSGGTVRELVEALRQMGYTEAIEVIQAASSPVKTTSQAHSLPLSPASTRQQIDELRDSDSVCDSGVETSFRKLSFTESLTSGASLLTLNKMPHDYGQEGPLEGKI
T1 sequence (Q00653 whole entry, looked up): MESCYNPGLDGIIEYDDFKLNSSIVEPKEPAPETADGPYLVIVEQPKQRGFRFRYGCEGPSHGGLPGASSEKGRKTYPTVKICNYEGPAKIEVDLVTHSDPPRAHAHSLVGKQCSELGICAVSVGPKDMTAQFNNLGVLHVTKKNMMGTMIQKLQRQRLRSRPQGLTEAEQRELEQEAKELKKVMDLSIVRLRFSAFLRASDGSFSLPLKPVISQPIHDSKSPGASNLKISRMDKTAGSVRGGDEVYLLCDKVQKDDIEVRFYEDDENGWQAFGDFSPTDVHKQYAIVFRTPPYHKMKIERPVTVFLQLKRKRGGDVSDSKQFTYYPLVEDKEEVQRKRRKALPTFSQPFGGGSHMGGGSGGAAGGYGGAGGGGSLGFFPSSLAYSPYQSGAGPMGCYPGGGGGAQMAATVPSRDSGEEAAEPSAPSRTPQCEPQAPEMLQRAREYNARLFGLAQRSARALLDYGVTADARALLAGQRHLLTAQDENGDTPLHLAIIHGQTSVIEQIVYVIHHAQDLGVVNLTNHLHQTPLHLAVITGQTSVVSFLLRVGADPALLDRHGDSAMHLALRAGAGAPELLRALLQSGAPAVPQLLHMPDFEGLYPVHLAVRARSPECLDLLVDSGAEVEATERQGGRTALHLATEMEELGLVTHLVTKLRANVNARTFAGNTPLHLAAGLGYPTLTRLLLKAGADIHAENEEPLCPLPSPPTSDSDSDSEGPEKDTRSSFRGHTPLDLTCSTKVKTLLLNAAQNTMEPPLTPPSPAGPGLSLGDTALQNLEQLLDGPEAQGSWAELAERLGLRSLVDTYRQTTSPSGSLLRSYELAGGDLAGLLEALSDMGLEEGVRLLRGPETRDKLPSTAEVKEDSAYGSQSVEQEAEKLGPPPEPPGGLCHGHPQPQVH
T1 sequence (Q04206 whole entry, looked up): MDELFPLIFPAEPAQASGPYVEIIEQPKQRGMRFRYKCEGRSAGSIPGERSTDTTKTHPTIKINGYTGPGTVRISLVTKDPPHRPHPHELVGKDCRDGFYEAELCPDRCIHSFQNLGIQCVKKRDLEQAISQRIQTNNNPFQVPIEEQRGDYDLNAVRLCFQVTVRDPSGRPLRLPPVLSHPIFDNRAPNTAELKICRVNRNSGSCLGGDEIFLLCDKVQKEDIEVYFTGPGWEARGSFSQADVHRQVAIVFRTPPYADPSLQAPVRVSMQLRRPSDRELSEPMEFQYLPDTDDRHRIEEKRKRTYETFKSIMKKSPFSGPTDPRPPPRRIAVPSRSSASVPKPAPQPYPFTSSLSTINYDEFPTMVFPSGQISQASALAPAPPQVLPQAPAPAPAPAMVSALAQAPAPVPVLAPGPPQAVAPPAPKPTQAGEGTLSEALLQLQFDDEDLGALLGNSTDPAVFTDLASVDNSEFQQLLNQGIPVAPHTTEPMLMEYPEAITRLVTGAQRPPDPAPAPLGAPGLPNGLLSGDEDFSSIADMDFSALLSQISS
Chain of Nucleotide-binding oligomerization domain-containing protein 2 (Q9HC29 whole entry, the tested form may be a part): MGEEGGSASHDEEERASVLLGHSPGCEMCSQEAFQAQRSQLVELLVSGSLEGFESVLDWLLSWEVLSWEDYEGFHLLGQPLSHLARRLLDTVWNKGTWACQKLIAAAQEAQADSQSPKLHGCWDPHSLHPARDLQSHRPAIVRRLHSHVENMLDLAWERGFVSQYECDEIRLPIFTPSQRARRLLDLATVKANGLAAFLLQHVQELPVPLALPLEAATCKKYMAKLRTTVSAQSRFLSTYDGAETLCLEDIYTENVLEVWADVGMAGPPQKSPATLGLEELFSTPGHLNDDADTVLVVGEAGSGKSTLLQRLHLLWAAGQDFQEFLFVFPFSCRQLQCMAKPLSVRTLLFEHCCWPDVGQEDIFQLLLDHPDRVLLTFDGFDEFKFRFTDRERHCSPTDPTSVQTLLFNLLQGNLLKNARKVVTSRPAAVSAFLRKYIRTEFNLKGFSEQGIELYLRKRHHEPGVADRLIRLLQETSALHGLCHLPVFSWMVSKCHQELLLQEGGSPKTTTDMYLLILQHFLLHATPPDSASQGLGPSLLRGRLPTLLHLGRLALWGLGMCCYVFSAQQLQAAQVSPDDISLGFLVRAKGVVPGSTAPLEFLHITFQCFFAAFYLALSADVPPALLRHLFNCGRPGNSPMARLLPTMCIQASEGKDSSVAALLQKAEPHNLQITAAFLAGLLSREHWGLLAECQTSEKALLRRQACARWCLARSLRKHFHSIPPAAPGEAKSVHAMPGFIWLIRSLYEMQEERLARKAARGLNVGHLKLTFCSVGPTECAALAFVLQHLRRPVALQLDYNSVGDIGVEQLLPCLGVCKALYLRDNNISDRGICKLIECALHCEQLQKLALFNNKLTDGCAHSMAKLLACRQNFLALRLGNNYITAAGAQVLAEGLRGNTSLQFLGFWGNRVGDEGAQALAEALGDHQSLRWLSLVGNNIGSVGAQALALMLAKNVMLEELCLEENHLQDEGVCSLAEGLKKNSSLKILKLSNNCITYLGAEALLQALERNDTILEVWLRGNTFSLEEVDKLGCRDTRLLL

COc1cccc(-c2cn([C@H]3[C@H](O[C@H](C)C(=O)N[C@@H](C)C(=O)N[C@H](CCC(=O)O)C(N)=O)[C@@H](NC(C)=O)[C@H](O)O[C@@H]3CO)nn2)c1
fold change (FC) [1]: 1 | fold change (FC) [2]: 1.1 | fold change (FC) [3]: 1.05

CC(=O)N[C@@H]1[C@@H](O[C@H](C)C(=O)N[C@@H](C)C(=O)N[C@H](CCC(=O)O)C(N)=O)[C@H](O)[C@@H](CNC(=O)CCSSCCNC(=O)CCCC[C@@H]2SC[C@@H]3NC(=O)N[C@@H]32)O[C@H]1O
fold change (FC) [4]: 7.05

CCO[C@@H]1O[C@H](CO)[C@@H](O[C@@H]2O[C@H](CO)[C@@H](O[C@@H]3O[C@H](CO)[C@@H](O[C@@H]4O[C@H](CO)[C@@H](O)[C@H](O[C@H](C)C(=O)N[C@@H](C)C(=O)N[C@H](CCC(=O)N[C@@H](CCCCN)C(=O)N[C@H](C)C(=O)N[C@H](C)C(=O)O)C(N)=O)[C@H]4NC(C)=O)[C@H](O)[C@H]3NC(C)=O)[C@H](O[C@H](C)C(=O)N[C@@H](C)C(=O)N[C@H](CCC(=O)N[C@@H](CCCCN)C(=O)N[C@H](C)C(=O)N[C@H](C)C(=O)O)C(N)=O)[C@H]2NC(C)=O)[C@H](O)[C@H]1NC(C)=O
Activity [5]: 12.5 mU

CC(=O)N[C@@H]1[C@@H](O[C@H](C)C(=O)N[C@@H](C(=O)N[C@H](CCC(=O)O)C(N)=O)C(C)C)[C@H](O)[C@@H](CO)O[C@H]1O
fold change (FC) [6]: 1 | fold change (FC) [7]: 1.05 | fold change (FC) [8]: 1.1

CC(=O)N[C@@H]1[C@@H](O[C@H](C)C(=O)N(C)[C@H](C)C(=O)N[C@H](CCC(=O)O)C(N)=O)[C@H](O)[C@@H](CO)O[C@H]1O
fold change (FC) [6]: 1.1 | fold change (FC) [7]: 1.3 | fold change (FC) [8]: 1.05

CC(=O)N[C@@H]1[C@@H](O[C@H](C)C(=O)N[C@H](C(=O)N[C@H](CCC(=O)O)C(N)=O)[C@@H](C)O)[C@H](O)[C@@H](CO)O[C@H]1O
fold change (FC) [6]: 1.8 | fold change (FC) [7]: 1.15 | fold change (FC) [8]: 5

CC(=O)N[C@@H]1[C@@H](O[C@H](C)C(=O)N[C@@H](C)C(=O)N[C@@H](CCC(=O)O)C(N)=O)[C@H](O)[C@@H](CNC(=O)CCOCCOCCOCCOCCNC(=O)CCCC[C@@H]2SC[C@@H]3NC(=O)N[C@@H]32)O[C@H]1O
fold change (FC) [4]: 1.2

CCO[C@@H]1O[C@H](CO)[C@@H](O[C@@H]2O[C@H](CO)[C@@H](O[C@@H]3O[C@H](CO)[C@@H](O[C@@H]4O[C@H](CO)[C@@H](O)[C@H](O[C@H](C)C(=O)N[C@@H](C)C(=O)N[C@H](CCC(=O)N[C@@H](CCCCN)C(=O)N[C@H](C)C(=O)O)C(N)=O)[C@H]4NC(C)=O)[C@H](O)[C@H]3NC(C)=O)[C@H](O)[C@H]2NC(C)=O)[C@H](O[C@H](C)C(=O)N[C@@H](C)C(=O)N[C@H](CCC(=O)N[C@@H](CCCCN)C(=O)N[C@H](C)C(=O)O)C(N)=O)[C@H]1NC(C)=O
Activity [5]: 0.09 mU

CC(=O)N[C@@H]1[C@@H](O[C@H](C)C(=O)N[C@H](CO)C(=O)N[C@H](CCC(=O)O)C(N)=O)[C@H](O)[C@@H](CO)O[C@H]1O
fold change (FC) [6]: 1.7 | fold change (FC) [7]: 1.05 | fold change (FC) [8]: 3.4

CC(=O)N[C@H]1[C@H](OCc2ccccc2)O[C@H](CO)[C@@H](N=[N+]=[N-])[C@@H]1O[C@H](C)C(=O)N[C@@H](C)C(=O)N[C@H](CCC(=O)O)C(N)=O
fold change (FC) [1]: 3.15 | fold change (FC) [2]: 1.3 | fold change (FC) [3]: 1.65

CCO[C@@H]1O[C@H](CO)[C@@H](O[C@@H]2O[C@H](CO)[C@@H](O[C@@H]3O[C@H](CO)[C@@H](O[C@@H]4O[C@H](CO)[C@@H](O)[C@H](O)[C@H]4NC(C)=O)[C@H](O[C@H](C)C(=O)N[C@@H](C)C(=O)N[C@H](CCC(=O)O)C(N)=O)[C@H]3NC(C)=O)[C@H](O)[C@H]2NC(C)=O)[C@H](O[C@H](C)C(=O)N[C@@H](C)C(=O)N[C@H](CCC(=O)O)C(N)=O)[C@H]1NC(C)=O
Activity [5]: 80 mU

CCO[C@@H]1O[C@H](CO)[C@@H](O[C@@H]2O[C@H](CO)[C@@H](O[C@@H]3O[C@H](CO)[C@@H](O[C@@H]4O[C@H](CO)[C@@H](O)[C@H](O[C@H](C)C(=O)N[C@@H](C)C(=O)N[C@H](CCC(=O)O)C(N)=O)[C@H]4NC(C)=O)[C@H](O)[C@H]3NC(C)=O)[C@H](O[C@H](C)C(=O)N[C@@H](C)C(=O)N[C@H](CCC(=O)O)C(N)=O)[C@H]2NC(C)=O)[C@H](O)[C@H]1NC(C)=O
Activity [5]: 800 mU

CC(=O)N[C@@H]1[C@@H](O)[C@H](O[C@@H]2O[C@H](CO)[C@@H](O)[C@H](O[C@H](C)C(=O)N[C@@H](C)C(=O)N[C@H](CCC(=O)O)C(N)=O)[C@H]2NC(C)=O)[C@@H](CO)O[C@H]1O
Activity [5]: 900 mU

CC(=O)N[C@@H]1[C@@H](O[C@H](C)C(=O)N[C@@H](C)C(=O)N[C@H](CCC(=O)O)C(N)=O)[C@H](O)[C@@H](CNC(=O)CCOCCOCCOCCOCCOCCOCCOCCOCCOCCOCCOCCOCCNC(=O)CCCC[C@@H]2SC[C@@H]3NC(=O)N[C@@H]32)O[C@H]1O
fold change (FC) [4]: 3

CC(=O)N[C@@H]1[C@@H](O[C@H](C)C(=O)N[C@@H](C)C(=O)N[C@@H](CCC(=O)O)C(N)=O)[C@H](O)[C@@H](CN)O[C@H]1O
fold change (FC) [4]: 1.1
